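All cell lines were grown in 96-well plates and treated with compound for 48 hours. Abbreviation: GI50, concentration required for 50% inhibition of growth. TGI denotes the concentration required for complete inhibition of growth.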
Tests used:
Test in all cases: NCI-60 cell line screen, 48 h
[1] = tested on: MDA-MB-231 breast
[2] = tested on: COLO 205 colon
[3] = tested on: NCI-H460 lung
[4] = tested on: HT29 colon
[5] = tested on: IGROV1 ovarian
[6] = tested on: LOX IMVI melanoma
[7] = tested on: MALME-3M melanoma
[8] = tested on: HL-60(TB) leukemia
[9] = tested on: NCI-H23 lung
[10] = tested on: OVCAR-3 ovarian
[11] = tested on: SK-MEL-28 melanoma
[12] = tested on: UO-31 renal
[13] = tested on: MOLT-4 leukemia
[14] = tested on: HCT-15 colon
[15] = tested on: PC-3 prostate
[16] = tested on: HOP-62 NSCLC
[17] = tested on: TK-10 renal
[18] = tested on: MDA-MB-435
[19] = tested on: SF-295 CNS
[20] = tested on: MCF7 breast
[21] = tested on: CCRF-CEM leukemia
[22] = tested on: EKVX NSCLC
[23] = tested on: BT-549 breast
[24] = tested on: K-562 leukemia
[25] = tested on: HCC-2998 colon
[26] = tested on: 786-0 renal
[27] = tested on: UACC-62 melanoma
[28] = tested on: HCT-116 colon
[29] = tested on: SNB-75 CNS
[30] = tested on: SNB-19 CNS
[31] = tested on: M14 melanoma
[32] = tested on: T-47D breast
[33] = tested on: RPMI-8226 leukemia
[34] = tested on: ACHN renal
[35] = tested on: SF-539 CNS
[36] = tested on: OVCAR-8 ovarian
[37] = tested on: SR leukemia
[38] = tested on: NCI-H522 lung
[39] = tested on: MDA-MB-468 breast
[40] = tested on: U251 CNS
[41] = tested on: UACC-257 melanoma
[42] = tested on: HOP-92 NSCLC
[43] = tested on: SK-MEL-5 melanoma
[44] = tested on: SK-OV-3 ovarian
[45] = tested on: RXF 393 renal
[46] = tested on: A549 NSCLC
[47] = tested on: HS 578T breast
[48] = tested on: SW-620 colon
[49] = tested on: KM12 colon
[50] = tested on: NCI/ADR-RES ovarian
[51] = tested on: DU-145 prostate
[52] = tested on: SN12C renal
[53] = tested on: OVCAR-4 ovarian
[54] = tested on: CAKI-1 renal
[55] = tested on: NCI-H226 lung
[56] = tested on: OVCAR-5 ovarian
[57] = tested on: SF-268 CNS

`Cc1cc(C(NC(=O)CCCCCNc2cccc3c2C(=O)N(C2CCC(=O)CC2=O)C3=O)c2cccc(N(C)C)c2)c(O)c2ncccc12` (centres undefined) gave a GI50 [1] of 22.2 nM, a TGI [1] of 136 nM and a GI50 [2] of 1080 nM. The TGI [2] was greater than 58500 nM, the GI50 [3] was 1140 nM and the TGI [3] was greater than 58500 nM. It also gave a GI50 [4] of 2360 nM, a TGI [4] greater than 58500 nM and a GI50 [5] of 686 nM. For the same compound, the TGI [5] was 6170 nM, the GI50 [6] was 1200 nM and the TGI [6] was greater than 16100 nM. It also gave a GI50 [7] of 97.5 nM, a TGI [7] of 957 nM and a GI50 [8] of 19.9 nM. The TGI [8] was 1670 nM, the GI50 [9] was 1540 nM and the TGI [9] was greater than 58500 nM. For the same compound, the GI50 [10] was 1230 nM, the TGI [10] was greater than 58500 nM and the GI50 [11] was 2060 nM. For the same compound, the TGI [11] was greater than 58500 nM, the GI50 [12] was 745 nM and the TGI [12] was greater than 25400 nM. It also gave a GI50 [13] of 34.6 nM, a TGI [13] greater than 58500 nM and a GI50 [14] of 910 nM. For the same compound, the TGI [14] was greater than 58500 nM, the GI50 [15] was 103 nM and the TGI [15] was greater than 58500 nM. It also gave a GI50 [16] of 547 nM, a TGI [16] greater than 12600 nM and a GI50 [17] of 2670 nM. For the same compound, the TGI [17] was greater than 58500 nM, the GI50 [18] was 2220 nM and the TGI [18] was greater than 58500 nM. The GI50 [19] was 1530 nM, the TGI [19] was greater than 58500 nM and the GI50 [20] was 982 nM. The TGI [20] was greater than 58500 nM, the GI50 [21] was 26.8 nM and the TGI [21] was 1360 nM. It also gave a GI50 [22] of 1360 nM, a TGI [22] greater than 58500 nM and a GI50 [23] of 85.1 nM. For the same compound, the TGI [23] was 930 nM, the GI50 [24] was 824 nM and the TGI [24] was greater than 58500 nM. The GI50 [25] was 941 nM, the TGI [25] was 3760 nM and the GI50 [26] was 1360 nM. For the same compound, the TGI [26] was greater than 58500 nM, the GI50 [27] was 1330 nM and the TGI [27] was 4630 nM. It also gave a GI50 [28] of 932 nM, a TGI [28] greater than 58500 nM and a GI50 [29] of 766 nM. The TGI [29] was greater than 58500 nM, the GI50 [30] was 1560 nM and the TGI [30] was greater than 58500 nM. The GI50 [31] was 585 nM, the TGI [31] was 3780 nM and the GI50 [32] was 739 nM. For the same compound, the TGI [32] was greater than 58500 nM, the GI50 [33] was 1580 nM and the TGI [33] was greater than 58500 nM. The GI50 [34] was 1920 nM, the TGI [34] was greater than 58500 nM and the GI50 [35] was 1830 nM. It also gave a TGI [35] of 30800 nM, a GI50 [36] of 555 nM and a TGI [36] greater than 58500 nM. The GI50 [37] was 922 nM, the TGI [37] was greater than 58500 nM and the GI50 [38] was 1800 nM. The TGI [38] was greater than 58500 nM, the GI50 [39] was 27.8 nM and the TGI [39] was 462 nM. The GI50 [40] was 1390 nM, the TGI [40] was greater than 58500 nM and the GI50 [41] was 2450 nM. It also gave a TGI [41] greater than 58500 nM, a GI50 [42] of 36.5 nM and a TGI [42] of 524 nM. It also gave a GI50 [43] of 822 nM, a TGI [43] of 1830 nM and a GI50 [44] of 1530 nM. For the same compound, the TGI [44] was 5020 nM, the GI50 [45] was 1550 nM and the TGI [45] was greater than 58500 nM. It also gave a GI50 [46] of 2120 nM, a TGI [46] greater than 58500 nM and a GI50 [47] of 482 nM. For the same compound, the TGI [47] was greater than 58500 nM, the GI50 [48] was 564 nM and the TGI [48] was greater than 58500 nM. The GI50 [49] was 1730 nM, the TGI [49] was greater than 58500 nM and the GI50 [50] was 5440 nM. For the same compound, the TGI [50] was greater than 58500 nM, the GI50 [51] was 3030 nM and the TGI [51] was greater than 58500 nM. The GI50 [52] was 1210 nM, the TGI [52] was greater than 58500 nM and the GI50 [53] was 1480 nM. It also gave a TGI [53] greater than 58500 nM, a GI50 [54] of 1140 nM and a TGI [54] greater than 58500 nM. The GI50 [55] was 782 nM, the TGI [55] was greater than 15800 nM and the GI50 [56] was 1900 nM. It also gave a TGI [56] greater than 58500 nM, a GI50 [57] of 1410 nM and a TGI [57] greater than 58500 nM.

Reference: PubChem BioAssay (NCI)
